ChEMBL document CHEMBL3797052 (Eur J Med Chem, 2016)

Legend:
[1] = tested on: MDA-MB-231; assay: Antiproliferative activity against human MDA-MB-231 cells assessed as cell growth at 10^-7 M after 48 hrs by sulforhodamine B assay; assay type: functional; conditions: MDA-MB-231, 48 h, read-out: Activity
[2] = tested on: A498; assay: Antiproliferative activity against human A498 cells assessed as cell growth at 10^-6 M after 48 hrs by sulforhodamine B assay; assay type: functional; conditions: A498, 48 h, read-out: Activity
[3] = tested on: NCI-H322M; assay: Antiproliferative activity against human NCI-H322M cells assessed as cell growth at 10^-6 M after 48 hrs by sulforhodamine B assay; assay type: functional; conditions: read-out: Activity
[4] = Antiproliferative activity against human IGROV1 cells assessed as cell growth at 10^-6 M after 48 hrs by sulforhodamine B assay; assay type: functional; conditions: IGROV-1, 48 h, read-out: Activity
[5] = tested on: SR; assay: Antiproliferative activity against human SR cells assessed as cell growth at 10^-8 M after 48 hrs by sulforhodamine B assay; assay type: functional; conditions: read-out: Activity
[6] = Antiproliferative activity against human BT549 cells assessed as growth inhibition after 48 hrs by sulforhodamine B assay; assay type: functional; conditions: BT-549, 48 h; for CC50: read-out: LC50 (the source's name)
[7] = tested on: SK-MEL-5; assay: Antiproliferative activity against human SK-MEL-5 cells assessed as cell growth at 10^-8 M after 48 hrs by sulforhodamine B assay; assay type: functional; conditions: SK-MEL-5, 48 h, read-out: Activity
[8] = tested on: CCRF-CEM; assay: Antiproliferative activity against human CCRF-CEM cells assessed as cell growth at 10^-4 M after 48 hrs by sulforhodamine B assay; assay type: functional; conditions: read-out: Activity
[9] = Antiproliferative activity against human Caki1 cells assessed as cell growth at 10^-4 M after 48 hrs by sulforhodamine B assay; assay type: functional; conditions: CAKI-1, 48 h, read-out: Activity
[10] = tested on: 786-0; assay: Antiproliferative activity against human 786-0 cells assessed as cell growth at 10^-8 M after 48 hrs by sulforhodamine B assay; assay type: functional; conditions: 786-0, 48 h, read-out: Activity
[11] = tested on: T47D; assay: Antiproliferative activity against human T47D cells assessed as growth inhibition after 48 hrs by sulforhodamine B assay; assay type: functional; conditions: for CC50: read-out: LC50 (the source's name)
[12] = tested on: NCI-H460; assay: Antiproliferative activity against human NCI-H460 cells assessed as growth inhibition after 48 hrs by sulforhodamine B assay; assay type: functional; conditions: NCI-H460, 48 h
[13] = Antiproliferative activity against human Hs 578T cells assessed as cell growth at 10^-4 M after 48 hrs by sulforhodamine B assay; assay type: functional; conditions: read-out: Activity
[14] = tested on: MDA-MB-468; assay: Antiproliferative activity against human MDA-MB-468 cells assessed as cell growth at 10^-7 M after 48 hrs by sulforhodamine B assay; assay type: functional; conditions: MDA-MB-468, 48 h, read-out: Activity
[15] = Antiproliferative activity against human UACC62 cells assessed as cell growth at 10^-6 M after 48 hrs by sulforhodamine B assay; assay type: functional; conditions: UACC-62, 48 h, read-out: Activity
[16] = tested on: NCI-H522; assay: Antiproliferative activity against human NCI-H522 cells assessed as cell growth at 10^-4 M after 48 hrs by sulforhodamine B assay; assay type: functional; conditions: NCI-H522, 48 h, read-out: Activity
[17] = Antiproliferative activity against human UACC62 cells assessed as cell growth at 10^-8 M after 48 hrs by sulforhodamine B assay; assay type: functional; conditions: UACC-62, 48 h, read-out: Activity
[18] = Antiproliferative activity against human SF539 cells assessed as cell growth at 10^-7 M after 48 hrs by sulforhodamine B assay; assay type: functional; conditions: SF-539, 48 h, read-out: Activity
[19] = Antiproliferative activity against human DU145 cells assessed as cell growth at 10^-7 M after 48 hrs by sulforhodamine B assay; assay type: functional; conditions: DU-145, 48 h, read-out: Activity
[20] = Antiproliferative activity against human TK10 cells assessed as cell growth at 10^-4 M after 48 hrs by sulforhodamine B assay; assay type: functional; conditions: TK-10, 48 h, read-out: Activity
[21] = Antiproliferative activity against human RXF393 cells assessed as cell growth at 10^-8 M after 48 hrs by sulforhodamine B assay; assay type: functional; conditions: RXF 393, 48 h, read-out: Activity
[22] = Antiproliferative activity against human BT549 cells assessed as cell growth at 10^-8 M after 48 hrs by sulforhodamine B assay; assay type: functional; conditions: BT-549, 48 h, read-out: Activity
[23] = tested on: MCF7; assay: Antiproliferative activity against human MCF7 cells assessed as cell growth at 10^-7 M after 48 hrs by sulforhodamine B assay; assay type: functional; conditions: MCF7, 48 h, read-out: Activity
[24] = Antiproliferative activity against human RXF393 cells assessed as cell growth at 10^-6 M after 48 hrs by sulforhodamine B assay; assay type: functional; conditions: RXF 393, 48 h, read-out: Activity
[25] = Antiproliferative activity against human LOXIMVI cells assessed as cell growth at 10^-4 M after 48 hrs by sulforhodamine B assay; assay type: functional; conditions: LOX IMVI, read-out: Activity
[26] = tested on: KM12; assay: Antiproliferative activity against human KM12 cells assessed as growth inhibition after 48 hrs by sulforhodamine B assay; assay type: functional; conditions: KM12, 48 h
[27] = Antiproliferative activity against human SKOV3 cells assessed as cell growth at 10^-4 M after 48 hrs by sulforhodamine B assay; assay type: functional; conditions: SK-OV-3, 48 h, read-out: Activity
[28] = tested on: NCI-H522; assay: Antiproliferative activity against human NCI-H522 cells assessed as cell growth at 10^-6 M after 48 hrs by sulforhodamine B assay; assay type: functional; conditions: NCI-H522, 48 h, read-out: Activity
[29] = tested on: MDA-MB-468; assay: Antiproliferative activity against human MDA-MB-468 cells assessed as cell growth at 10^-6 M after 48 hrs by sulforhodamine B assay; assay type: functional; conditions: MDA-MB-468, 48 h, read-out: Activity
[30] = target: hERG (KCNH2) (Homo sapiens, UniProt Q12809); assay: Inhibition of human ERG assessed as reduction in channel current at 100 uM by automated patch-clamp electrophysiology assay
[31] = tested on: 786-0; assay: Antiproliferative activity against human 786-0 cells assessed as cell growth at 10^-7 M after 48 hrs by sulforhodamine B assay; assay type: functional; conditions: 786-0, 48 h, read-out: Activity
[32] = tested on: NCI-H226; assay: Antiproliferative activity against human NCI-H226 cells assessed as cell growth at 10^-6 M after 48 hrs by sulforhodamine B assay; assay type: functional; conditions: NCI-H226, 48 h, read-out: Activity
[33] = Antiproliferative activity against human SKOV3 cells assessed as cell growth at 10^-6 M after 48 hrs by sulforhodamine B assay; assay type: functional; conditions: SK-OV-3, 48 h, read-out: Activity
[34] = Antiproliferative activity against human OVCAR5 cells assessed as cell growth at 10^-8 M after 48 hrs by sulforhodamine B assay; assay type: functional; conditions: OVCAR-5, 48 h, read-out: Activity
[35] = Antiproliferative activity against human SF268 cells assessed as cell growth at 10^-6 M after 48 hrs by sulforhodamine B assay; assay type: functional; conditions: SF-268, 48 h, read-out: Activity
[36] = Antiproliferative activity against human MOLT4 cells assessed as cell growth at 10^-6 M after 48 hrs by sulforhodamine B assay; assay type: functional; conditions: MOLT-4, 48 h, read-out: Activity

hERG (KCNH2), sequence (Q12809 whole entry): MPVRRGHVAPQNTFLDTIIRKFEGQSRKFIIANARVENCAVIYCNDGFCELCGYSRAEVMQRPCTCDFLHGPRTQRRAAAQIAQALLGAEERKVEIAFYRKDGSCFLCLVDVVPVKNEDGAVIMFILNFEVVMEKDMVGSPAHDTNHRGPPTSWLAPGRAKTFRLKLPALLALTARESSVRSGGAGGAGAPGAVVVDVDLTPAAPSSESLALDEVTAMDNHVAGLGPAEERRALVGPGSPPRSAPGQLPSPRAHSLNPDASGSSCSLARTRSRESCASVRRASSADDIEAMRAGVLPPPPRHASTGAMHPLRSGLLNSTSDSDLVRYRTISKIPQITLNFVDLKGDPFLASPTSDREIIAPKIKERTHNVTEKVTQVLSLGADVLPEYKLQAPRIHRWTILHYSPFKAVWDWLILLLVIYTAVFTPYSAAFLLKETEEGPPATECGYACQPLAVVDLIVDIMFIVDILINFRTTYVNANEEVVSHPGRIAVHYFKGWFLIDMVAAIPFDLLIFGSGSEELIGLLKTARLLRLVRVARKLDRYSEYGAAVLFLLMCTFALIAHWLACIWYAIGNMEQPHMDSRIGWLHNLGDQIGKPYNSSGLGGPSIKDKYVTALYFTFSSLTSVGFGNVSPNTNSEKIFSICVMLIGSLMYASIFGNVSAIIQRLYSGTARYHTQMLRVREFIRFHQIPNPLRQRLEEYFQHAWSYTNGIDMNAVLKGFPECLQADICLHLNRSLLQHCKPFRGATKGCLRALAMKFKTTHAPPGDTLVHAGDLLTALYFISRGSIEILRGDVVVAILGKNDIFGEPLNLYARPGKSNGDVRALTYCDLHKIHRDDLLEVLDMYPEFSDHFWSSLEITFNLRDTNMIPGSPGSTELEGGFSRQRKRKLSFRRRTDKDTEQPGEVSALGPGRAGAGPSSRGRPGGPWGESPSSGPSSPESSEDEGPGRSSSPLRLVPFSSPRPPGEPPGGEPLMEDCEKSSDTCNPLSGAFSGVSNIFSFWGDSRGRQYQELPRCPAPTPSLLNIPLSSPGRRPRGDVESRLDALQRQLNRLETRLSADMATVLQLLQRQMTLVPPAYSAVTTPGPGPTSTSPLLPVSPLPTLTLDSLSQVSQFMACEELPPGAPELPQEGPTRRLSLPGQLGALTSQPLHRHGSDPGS

For `CNC(=O)c1cc(Oc2ccc3nc(NC(=O)Nc4ccc(Cl)c(C(F)(F)F)c4)sc3c2)ccn1`, which growth at 0.1 µM [1] is on record?
The growth at 0.1 µM was 109%.

What about the growth at 1 µM [2] of the same compound?
Its growth at 1 µM is 80%.

What about the growth at 1 µM [3] of the same compound?
The growth at 1 µM was 96%.

What about the growth at 1 µM [4] of the same compound?
Its growth at 1 µM is 88%.

And the growth at 0.01 µM [5]?
The growth at 0.01 µM was 110%.

What about the GI50 [6] of the same compound?
The GI50 was 2.64 µM.

And the TGI [6]?
Its TGI is 9.73 µM.

And the CC50 [6]?
Its CC50 is over 100 µM.

What about the growth at 0.01 µM [7] of the same compound?
Its growth at 0.01 µM is 93%.

What about the growth at 100 µM [8] of the same compound?
The growth at 100 µM was 53%.

And the growth at 100 µM [9]?
The growth at 100 µM was 17%.

What about the growth at 0.01 µM [10] of the same compound?
Its growth at 0.01 µM is 97%.

What about the GI50 [11] of the same compound?
The GI50 was 0.723 µM.

And the TGI [11]?
The TGI was 3.65 µM.

What about the CC50 [11] of the same compound?
Its CC50 is over 100 µM.

And the GI50 [12]?
The GI50 was 1.79 µM.

What about the growth at 100 µM [13] of the same compound?
The growth at 100 µM was -12%.

What about the growth at 0.1 µM [14] of the same compound?
The growth at 0.1 µM was 85%.

What about the growth at 1 µM [15] of the same compound?
The growth at 1 µM was 83%.

What about the growth at 100 µM [16] of the same compound?
Its growth at 100 µM is 23%.

And the growth at 0.01 µM [17]?
The growth at 0.01 µM was 95%.

What about the growth at 0.1 µM [18] of the same compound?
Its growth at 0.1 µM is 97%.

And the growth at 0.1 µM [19]?
The growth at 0.1 µM was 109%.

And the growth at 100 µM [20]?
Its growth at 100 µM is -62%.

What about the growth at 0.01 µM [21] of the same compound?
Its growth at 0.01 µM is 87%.

And the growth at 0.01 µM [22]?
The growth at 0.01 µM was 95%.

What about the growth at 0.1 µM [23] of the same compound?
The growth at 0.1 µM was 89%.

And the growth at 1 µM [24]?
Its growth at 1 µM is 88%.

What about the growth at 100 µM [25] of the same compound?
Its growth at 100 µM is 11%.

And the GI50 [26]?
Its GI50 is 3.41 µM.

What about the LC50 [26] of the same compound?
The LC50 was over 100 µM.

And the TGI [26]?
Its TGI is over 100 µM.

And the growth at 100 µM [27]?
Its growth at 100 µM is -68%.

What about the growth at 1 µM [28] of the same compound?
Its growth at 1 µM is 80%.

And the growth at 1 µM [29]?
Its growth at 1 µM is 64%.

What about the inhibition at 100 µM [30] of the same compound?
The inhibition at 100 µM was 26.2%.

And the growth at 0.1 µM [31]?
The growth at 0.1 µM was 101%.

And the growth at 1 µM [32]?
Its growth at 1 µM is 98%.

And the growth at 1 µM [33]?
Its growth at 1 µM is 90%.

What about the growth at 0.01 µM [34] of the same compound?
The growth at 0.01 µM was 90%.

And the growth at 1 µM [35]?
The growth at 1 µM was 78%.

And the growth at 1 µM [36]?
Its growth at 1 µM is 95%.

With `CNC(=O)c1cc(Oc2ccc(NC(=O)Nc3ccc(Cl)c(C(F)(F)F)c3)cc2)ccn1` [SORAFENIB] as the compound, how does the GI50 [6] read?
The GI50 was 3.16 µM.

And the TGI [6]?
Its TGI is 5.01 µM.

What about the CC50 [6] of the same compound?
The CC50 was 15.8 µM.

And the TGI [11]?
Its TGI is 7.94 µM.

What about the CC50 [11] of the same compound?
The CC50 was 31.6 µM.

And the GI50 [12]?
The GI50 was 2.51 µM.

What about the TGI [12] of the same compound?
The TGI was 10 µM.

And the TGI [26]?
The TGI was 7.94 µM.
